# Reference: patent US10407409B2, “6-(5-hydroxy-1H-pyrazol-1-yl)nicotinamide inhibitors of PHD” (Takeda Pharmaceutical Company Limited, priority 2013, dated 2019)
# Key:
# [1] = target: PHD2 enzyme (residues 181-417) (Homo sapiens (Human), UniProt Q9GZT9); assay: Inhibition of PHD enzyme (LC/MS peptide hydroxylation assay); assay type: biochemical; details: PHD2 (residues 181-417) 5 nM, 60 min pre-incubation; -log(IC50), IC50 molar
# How it was run: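 PHD2 (5 nM final) preincubated with inhibitor 60 min at RT in 50 mM HEPES, 50 mM KCl, 0.5 mM TCEP, 2 uM FeCl2, 0.1 mg/ml BSA, pH 7.3. Reaction started with biotin-peptide (1 uM), 2-oxoglutarate (2 uM), ascorbate (1 mM), quenched at 60 min; hydroxylated product by LC/MS, reported as pIC50.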
# [2] = system: HIF1a protein in H9c2 rat cardiomyocytes; assay: Cell-based HIF-alpha stabilization assay (inhibition of PHD in cells); details: Rattus norvegicus, H9c2, 24 h, 24 hrs compound incubation, HIF1a protein by ELISA, read-out: Inhibition of PHD in cells (pEC50) (converted)
# How it was run: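 Rat H9c2 cardiomyocytes, cultured 24 h, were treated 24 h with an 11-point serial dilution of compound. HIF1a in whole-cell lysates was quantified by ELISA as % of the maximal desferrioxamine response. EC50 came from curve fitting; EC50pos is the concentration reaching 50% of the desferrioxamine maximum.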
# VEGF = assay: Heart gene changes for vascular endothelial growth factor (VEGF), qRT-PCR; assay type: in vivo, mice; details: 60 mg/kg; for VEGF % Increase Compared to Control: male C57BL/6 mice, oral, heart, 2 h after dosing
# Description: Example D Determination of Heart Gene Changes for Vascular Endothelial Growth Factor (VEGF)
# PHD inhibitor or vehicle were administered orally to male C57BL/6 in groups of four. The compounds were formulated in 30% hydroxypropyl beta-cyclodextrin in 50 mM Sodium Phosphate pH7.4 at doses of 30 mg/kg and 60 mg/kg. Two hours after dosing the mice were euthanized by CO2 and the hearts were removed quickly, sectioned into 2 pieces; the lower (apical) section was snap frozen and stored at −80° C. and analyzed for VEGF gene changes applying qRT-PCR and using Life Technologies #4392938 and an RNA extraction protocol using Qiagen #74881 RNeasy 96 Universal Tissue Kit. Standards are made from RNA from combined vehicle treated animals at a concentration of 100 μg/mL, a 7 point curve is made with 1:4 dilutions and a blank. Samples are run on using RNA-to-CT 1-Step method using a StepOnePlus Real-Time PCR System from Applied Biosystems Relative quantitation is expressed by dividing the quantity of VEGF by the quantity of the reference gene. Treatment groups and vehicle control were combined and averaged.
# C57 mice = assay: In vivo cardioprotection assay, Langendorff global ischemia/reperfusion, mice; details: oral, 60 min reperfusion; for reduced area of the infarct compared to vehicle control: 4 h after dosing, 30 min global ischemia
# Description: (§1) Example C In Vivo Cardioprotection Assay
# (§2) PHD inhibitor or vehicle was administered orally to 8-week old male C57 mice or Sprague Dawley rats. Four hours after dosing, hearts were removed quickly and perfused in a retrograde manner with modified Krebs-Henseleit buffer in a Langendorff apparatus at constant pressure (80 mmHg). To measure infarct size, hearts were first perfused for 20 min to reach equilibrium and then subjected to a 30-minute global ischemia (no-flow) period followed by a 60-min reperfusion period in mice or 90-min reperfusion in rats. The ventricles were cut transversely into 5 sections. The slices were stained 1% 2,3,5-triphenyl tetrazolium chloride (TTC) and scanned to measure the infarct area and the total area. Cardiac injury was assessed by measuring lactate dehydrogenase (LDH) release to coronary effluent during the 60-min reperfusion period (in mice only). The amount of LDH release was determined using an LDH activity assay kit (MBL International Corp.) as expressed as % of vehicle treated hearts.
# Sprague Dawley rats = assay: In vivo cardioprotection assay, Langendorff global ischemia/reperfusion, rats; details: oral, 5 mg/kg, 30 min global ischemia, 90 min reperfusion
# Description: as §1, §2
# PHD2 enzyme (residues 181-417), sequence (Q9GZT9 181-417): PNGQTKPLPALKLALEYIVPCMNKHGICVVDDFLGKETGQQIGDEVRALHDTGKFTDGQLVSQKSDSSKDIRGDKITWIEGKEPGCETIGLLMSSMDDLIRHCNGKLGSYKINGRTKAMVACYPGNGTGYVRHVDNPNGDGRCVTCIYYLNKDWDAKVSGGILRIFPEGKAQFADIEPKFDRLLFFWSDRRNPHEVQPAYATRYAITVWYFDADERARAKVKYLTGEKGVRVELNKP
SMILES,PHD Inhibition (pIC50) [1],EC50 [2] [nM],other results
"CCN1CCN(C(=O)c2ccc(-n3ncc(-c4ccc(C#N)cc4C)c3O)nc2)CC1 [Example 282, 4-(1-(5-(4-ethylpiperazine-1-carbonyl)pyridin-2-yl)-5-hydroxy-1H-pyrazol-4-yl)-3-methylbenzonitrile]",8.00,575,greater VEGF mRNA production compared to the compound of Example R1 (VEGF; mouse heart): 2 fold; VEGF % Increase Compared to Control (VEGF): 203.1%; reduction of LDH released to the coronary effluent (C57 mice; 10 mg/kg): 51%; reduced area of the infarct compared to vehicle control (C57 mice; 10 mg/kg): 50%; reduction of LDH released to the coronary effluent (C57 mice; 30 mg/kg): 56%; reduced area of the infarct compared to vehicle control (C57 mice; 30 mg/kg): 59%; reduced area of the infarct (Sprague Dawley rats): 30%
"COCCN1CCC(N(C)C(=O)c2ccc(-n3ncc(-c4ccc(C#N)cc4C)c3O)nc2)CC1 [Example 427, 6-(4-(4-cyano-2-methylphenyl)-5-hydroxy-1H-pyrazol-1-yl)-N-(1-(2-methoxyethyl)piperidin-4-yl)-N-methylnicotinamide]",7.83,646,–
"Cc1cc(C#N)ccc1-c1cnn(-c2ccc(C(=O)N3CCN4CCC3CC4)cn2)c1O [Example 428, (S)-4-(1-(5-(1,4-diazabicyclo[3.2.2]nonane-4-carbonyl)pyridin-2-yl)-5-hydroxy-1H-pyrazol-4-yl)-3-methylbenzonitrile]",7.88,501,–
"CCN(C(=O)c1ccc(-n2ncc(-c3ccc(C#N)cc3C)c2O)nc1)C1CCN(C)CC1 [Example 429, 6-(4-(4-cyano-2-methylphenyl)-5-hydroxy-1H-pyrazol-1-yl)-N-ethyl-N-(1-methylpiperidin-4-yl)nicotinamide]",7.95,589,–
"Cc1cc(-n2ncc(-c3ccc(C#N)cc3)c2O)ncc1C(=O)N1CCN(C)CC1 [Example 430, 4-(5-hydroxy-1-(4-methyl-5-(4-methylpiperazine-1-carbonyl)pyridin-2-yl)-1H-pyrazol-4-yl)benzonitrile]",7.44,8510,–
"Cc1cc(-n2ncc(-c3ccc(C#N)cc3)c2O)ncc1C(=O)N(C)C1CCN(C)CC1 [Example 431, 6-(4-(4-cyanophenyl)-5-hydroxy-1H-pyrazol-1-yl)-N,4-dimethyl-N-(1-methylpiperidin-4-yl)nicotinamide]",7.31,2750,–
"Cc1cc(C#N)ccc1-c1cnn(-c2ccc(C(=O)N(C)C3CN(C)C3)cn2)c1O [Example 432, 6-(4-(4-cyano-2-methylphenyl)-5-hydroxy-1H-pyrazol-1-yl)-N-methyl-N-(1-methylazetidin-3-yl)nicotinamide]",8.02,741,–
"CCN1CCN(C(=O)c2ccc(-n3ncc(-c4cc(F)c(C#N)cc4C)c3O)nc2)[C@@H](C)C1 [Example 433, (S)-4-(1-(5-(4-ethyl-2-methylpiperazine-1-carbonyl)pyridin-2-yl)-5-hydroxy-1H-pyrazol-4-yl)-2-fluoro-5-methylbenzonitrile]",8.20,363,–
"CCN1CCN(C(=O)c2ccc(-n3ncc(-c4ccc(C#N)cc4C)c3O)nc2)[C@H](C)C1 [Example 434, (R)-4-(1-(5-(4-ethyl-2-methylpiperazine-1-carbonyl)pyridin-2-yl)-5-hydroxy-1H-pyrazol-4-yl)-3-methylbenzonitrile]",8.20,1290,–
"CC(C)(C)NC(=O)c1ccc(-n2ncc(-c3cccnc3)c2O)nc1 [Example R1, N-tert-butyl-6-(5-oxo-4-pyridin-3-yl-2,5-dihydro-1H-pyrazol-1-yl)pyridine-3-carboxamide, reference compound]",–,955,VEGF % Increase Compared to Control (VEGF): 95.2%
